pIC50: −log10 of the molar value. “And” between values parts separate entries of the source, which are not always exact repeats. Equal entries are not always repeated. The source made the active and inactive calls. No rule for the calls is given here.
system: C2C12 WNT3A-conditioned, nuclear beta-catenin; experiment: activation of intranuclear CTNNB1 in the C2C12 line, dose-response, cell-based, Wnt-3a conditioned medium, half-maximal inhibitory concentration (AID 1117325)

Row | SMILES | IC50 | pIC50
1 | CSc1ccc2c(c1)C(N1CCN(C)CC1)Cc1ccccc1S2 (configuration not stated) | > 20000 nM (inactive) | 
2 | CN(Cc1cnc2nc(N)nc(N)c2n1)c1ccc(C(=O)N[C@@H](CCC(=O)O)C(=O)O)cc1 |  | 7.58
3 | Cc1nc(N)nc(N)c1-c1ccc(Cl)c(Cl)c1 |  | 7.30
4 | CC(=O)[C@]1(O)Cc2c(O)c3c(c(O)c2[C@@H](O[C@H]2C[C@H](N)[C@H](O)[C@H](C)O2)C1)C(=O)c1ccccc1C3=O |  | 7.00
5 | CN(C)c1ccc(C(=C2C=CC(=[N+](C)C)C=C2)c2ccccc2)cc1 | > 20000 nM (inactive) | 
6 | NC(N)=NN=C(/C=C/c1ccc([N+](=O)[O-])o1)/C=C/c1ccc([N+](=O)[O-])o1 | > 20000 nM (inactive) | 
7 | COc1cccc2c1C(=O)c1c(O)c3c(c(O)c1C2=O)C[C@@](O)(C(=O)CO)C[C@@H]3O[C@H]1C[C@H](N)[C@H](O[C@@H]2CCCCO2)[C@H](C)O1 | > 20000 nM (inactive) | 
8 | CC(C)C[C@H](NC(=O)[C@H](CCc1ccccc1)NC(=O)CN1CCOCC1)C(=O)N[C@@H](Cc1ccccc1)C(=O)N[C@@H](CC(C)C)C(=O)[C@@]1(C)CO1 |  | 7.53
9 | COC(=O)Nc1nc2ccc(C(=O)c3ccccc3)cc2[nH]1 |  | 5.76
10 | CCCSc1ccc2nc(NC(=O)OC)[nH]c2c1 |  | 5.89
11 | COC(=O)Nc1nc2ccc(Sc3ccccc3)cc2[nH]1 |  | 5.32
12 | CCCCCCCCCCOCC(O)CN (configuration not stated) | > 20000 nM (inactive) | 
13 | CCCCCCNC(=O)n1cc(F)c(=O)[nH]c1=O |  | 5.30
14 | CC[C@@]1(O)C(=O)OCc2c1cc1n(c2=O)Cc2c-1nc1ccccc1c2/C=N/OC(C)(C)C |  | 5.94
15 | Cc1ccc2c(Br)cc(Br)c(O)c2n1 | > 20000 nM (inactive) | 
16 | CC[C@@]1(O)C(=O)OCc2c1cc1n(c2=O)Cc2cc3c(CN(C)C)c(O)ccc3nc2-1 |  | 6.87
17 | CCCOc1ccc2nc(NC(=O)OC)[nH]c2c1 |  | 6.44
18 | CC[C@]1(O)C[C@H]2CN(CCc3c([nH]c4ccccc34)[C@@](C(=O)OC)(c3cc4c(cc3OC)N(C=O)[C@H]3[C@@](O)(C(=O)OC)[C@H](OC(C)=O)[C@]5(CC)C=CCN6CC[C@]43[C@@H]65)C2)C1 |  | 8.40
19 | c1ccc2c(c1)Sc1ccccc1N2CC1CN2CCC1CC2 (configuration not stated) | > 20000 nM (inactive) | 
20 | Cc1nc(Nc2ncc(C(=O)Nc3c(C)cccc3Cl)s2)cc(N2CCN(CCO)CC2)n1 |  | 6.98
21 | C=CC(=O)Nc1cc2c(Nc3ccc(F)c(Cl)c3)ncnc2cc1OCCCN1CCOCC1 |  | 6.00

Row | SMILES | IC50 | pIC50
22 | Cc1ccc2nc(N)[nH]c(=O)c2c1Sc1ccncc1 |  | 6.15
23 | CC(C)(C)C(=O)OCOP(=O)(COCCn1cnc2c(N)ncnc21)OCOC(=O)C(C)(C)C |  | 6.15
24 | CCCCCCCCCCCCCC[N+](C)(C)C | > 20000 nM (inactive) | 
25 | Cc1nc2ccc(CN(C)c3ccc(C(=O)N[C@@H](CCC(=O)O)C(=O)O)s3)cc2c(=O)[nH]1 |  | 7.90
26 | COC(=O)Nc1nc2ccc(C(=O)C3CC3)cc2[nH]1 |  | 6.46
27 | COC(=O)c1nc(Cl)c(Cl)nc1N |  | 6.51
28 | C[C@@]12C(=O)OC(=O)[C@]1(C)C1CCC2O1 | > 20000 nM (inactive) | 
29 | CCCCCCCCCCCCCCC[C@H](O)[C@@H](N)CO | > 20000 nM (inactive) | 
30 | OCCN1CCN(CCCN2c3ccccc3Sc3ccc(Cl)cc32)CC1 | > 20000 nM (inactive) | 
31 | CC[C@@H]([C@H](C)O)n1ncn(-c2ccc(N3CCN(c4ccc(OC[C@@H]5CO[C@@](Cn6cncn6)(c6ccc(F)cc6F)C5)cc4)CC3)cc2)c1=O | 5290 nM (inactive) | 
32 | [O-][n+]1ccccc1SSc1cccc[n+]1[O-] |  | 6.00
33 | CN1CC[C@H](c2c(O)cc(O)c3c(=O)cc(-c4ccccc4Cl)oc23)[C@H](O)C1 |  | 6.72
34 | O=C(Nc1ccc([N+](=O)[O-])cc1Cl)c1cc(Cl)ccc1O |  | 5.80
35 | O=C1c2c(O)ccc(O)c2C(=O)c2c(NCCNCCO)ccc(NCCNCCO)c21 |  | 7.52
36 | CCCCCCCCCCCC(=O)[O][Sn]([CH2]CCC)([CH2]CCC)[O]C(=O)CCCCCCCCCCC | > 20000 nM (inactive) | 
37 | CC[C@]1(O)C[C@@H]2CN(CCc3c([nH]c4ccccc34)[C@@](C(=O)OC)(c3cc4c(cc3OC)N(C)[C@H]3[C@@](O)(C(=O)OC)[C@H](OC(C)=O)[C@]5(CC)C=CCN6CC[C@]43[C@@H]65)C2)C1 |  | 8.46 and 8.24
38 | CN1C[C@H](CNC(=O)OCc2ccccc2)C[C@@H]2c3cccc4c3c(cn4C)C[C@H]21 | > 20000 nM (inactive) | 
39 | O=C(CCl)c1ccc(Cl)cc1Cl |  | 6.43
40 | CCCCCCCCCCCCNCCNCCNCC(=O)O | > 20000 nM (inactive) | 
41 | CCCCC1C(=O)N(c2ccccc2)N(c2ccc(O)cc2)C1=O (configuration not stated) | > 20000 nM (inactive) | 
42 | COc1cccc2c1C(=O)c1c(O)c3c(c(O)c1C2=O)C[C@@](O)(C(C)=O)C[C@@H]3O[C@H]1C[C@H](N)[C@H](O)[C@H](C)O1 |  | 6.43

From PubChem BioAssay AID1117325 (Cheminformatics & Chemogenomics Research Group (CCRG), …, 2015)
